Test results: PMC3326594 (Journal of Medicinal Chemistry, 2012)

What was measured:
P-gp = P-gp (Homo sapiens, UniProt P08183); settings: for LE (ligand efficiency): binding free energy from IC50 per heavy atom, 310 K; for LipE (lipophilic efficiency): from pIC50 and clogP (eq 5)
P-glycoprotein (P-gp) = P-glycoprotein (P-gp) (Homo sapiens, UniProt P08183); assay: Inhibition of daunorubicin efflux in multidrug resistant CCRF-CEM vcr 1000 cells; type: cell-based
hERG potassium channel = settings: hERG blockers from literature; cited from earlier work
[1] = pIC50 calcd, predicted from the clogP/pIC50 correlation line (Figure 2)

Chain of P-glycoprotein (P-gp) (P08183 whole entry): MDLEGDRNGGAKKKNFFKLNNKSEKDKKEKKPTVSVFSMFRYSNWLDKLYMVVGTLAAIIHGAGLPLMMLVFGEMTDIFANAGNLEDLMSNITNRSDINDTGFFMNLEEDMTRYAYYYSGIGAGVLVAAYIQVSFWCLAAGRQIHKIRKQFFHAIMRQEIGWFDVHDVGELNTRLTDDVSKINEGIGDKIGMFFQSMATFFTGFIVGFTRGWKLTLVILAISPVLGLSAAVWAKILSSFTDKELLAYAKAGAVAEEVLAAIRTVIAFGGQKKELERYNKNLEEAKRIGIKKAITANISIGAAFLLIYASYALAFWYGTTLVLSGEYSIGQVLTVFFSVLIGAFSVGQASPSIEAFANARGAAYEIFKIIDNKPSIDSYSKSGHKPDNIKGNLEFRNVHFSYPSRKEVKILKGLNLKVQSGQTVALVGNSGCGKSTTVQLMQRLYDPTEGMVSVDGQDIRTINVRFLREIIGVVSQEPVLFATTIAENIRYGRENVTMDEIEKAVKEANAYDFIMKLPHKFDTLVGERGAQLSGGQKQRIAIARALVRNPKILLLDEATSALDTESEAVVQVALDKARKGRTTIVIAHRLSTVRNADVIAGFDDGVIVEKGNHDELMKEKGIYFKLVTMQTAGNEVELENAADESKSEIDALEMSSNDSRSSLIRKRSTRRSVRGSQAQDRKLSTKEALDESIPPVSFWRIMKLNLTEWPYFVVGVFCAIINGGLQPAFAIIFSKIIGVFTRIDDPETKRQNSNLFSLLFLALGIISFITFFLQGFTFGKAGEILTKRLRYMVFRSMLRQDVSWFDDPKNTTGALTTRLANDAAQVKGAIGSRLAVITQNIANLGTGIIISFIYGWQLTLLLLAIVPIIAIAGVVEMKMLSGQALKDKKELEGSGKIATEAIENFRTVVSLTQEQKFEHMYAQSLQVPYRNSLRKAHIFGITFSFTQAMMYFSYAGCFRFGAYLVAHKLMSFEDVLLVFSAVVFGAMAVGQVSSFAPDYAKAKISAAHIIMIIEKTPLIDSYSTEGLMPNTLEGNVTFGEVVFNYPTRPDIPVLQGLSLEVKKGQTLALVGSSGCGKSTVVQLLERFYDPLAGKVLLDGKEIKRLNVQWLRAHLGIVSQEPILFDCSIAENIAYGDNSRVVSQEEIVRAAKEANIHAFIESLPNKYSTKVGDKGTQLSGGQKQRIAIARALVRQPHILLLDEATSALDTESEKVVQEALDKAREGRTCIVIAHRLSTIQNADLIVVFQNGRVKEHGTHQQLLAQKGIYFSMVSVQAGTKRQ
Chain of P-gp (P08183 whole entry): as above

Row | Compound | LE (ligand efficiency) (P-gp) [kcal per heavy atom] | LipE (lipophilic efficiency) (P-gp) | other results
1 | CCCNCC(O)COc1ccccc1C(=O)c1ccc(C)cc1 (centres unmarked) [Compound 20] | 0.35 |  | 
2 | O=C(c1ccccc1)c1ccccc1OCC(O)CN1CCC(O)(c2ccccc2)CC1 (centres unmarked) [Compound 19] |  |  | IC50 (P-glycoprotein (P-gp); [1]): 1740 nM; factor more active than equilipophilic compound 20 (P-glycoprotein (P-gp); pairwise comparison of IC50, 19 vs 20): ~4 fold
3 | O=C(c1ccccc1)c1ccccc1OCC(O)CN1CCN(CC(O)COc2ccccc2C(=O)c2ccccc2)CC1 (centres unmarked) [Compound 23] | 0.23 |  | IC50 (P-glycoprotein (P-gp); [1]): 794 nM; IC50 (P-glycoprotein (P-gp); pIC50 obs, observed, daunorubicin efflux inhibition): 53.7 nM; more active than equilipophilic compound 21 (P-glycoprotein (P-gp); pairwise comparison of IC50, 23 vs 21): about 1 order of magnitude
4 | CC(=O)c1cc(C)ccc1OCC(O)CN1CCN(CC(O)COc2ccccc2C(=O)c2ccccc2)CC1 (centres unmarked) [Compound 24, 1-[2-(3-{4-[3-(2-Benzoyl-phenoxy)-2-hydroxyl-propyl]-piperazine-1-yl}-2-hydroxy-propoxy)-5-methyl-phenyl]-ethanone] | 0.18 |  | 
5 | CCOC/C=C/c1ccc(-c2nc(-c3ccc(NC(C)C)cc3)c(-c3ccc(NC(C)C)cc3)[nH]2)cc1 [ONT093] | 0.29 | 0.19 | 
6 | O=C(CCc1ccccc1)c1ccccc1OCC(O)CN1CCC(O)(c2ccccc2)CC1 (centres unmarked) [GPV062] | 0.30 |  | 
7 | O=C(c1ccccc1)c1ccccc1OCC(O)CN1CCCCC1 (centres unmarked) [Compound 12] | 0.33 |  | 
8 | CN(CCOc1ccc(NS(C)(=O)=O)cc1)CCc1ccc(NS(C)(=O)=O)cc1 [dofetilide] |  |  | potency values (hERG potassium channel): < 10 nM
9 | O=C(CCc1ccccc1)c1ccccc1OCC(O)CN1CCCCC1 (centres unmarked) [GPV005] | 0.33 | 1.84 | 
10 | COc1cc2c(cc1OC)CN(CCc1ccc(NC(=O)c3cc(OC)c(OC)cc3NC(=O)c3cnc4ccccc4c3)cc1)CC2 [Tariquidar] | 0.22 | 1.93 | 
